Measurements taken from PubChem BioAssay (NCI).
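Protocol summary: plate cells (96-well), add compound at 5 concentrations, incubate 48 h, interpolate endpoints linearly. GI50 marks 50% less growth. TGI is the concentration that stops growth completely.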

Key:
Experiment in all cases: DTP human tumour cell line panel, 48 h
SW-620 colon = tested on: SW-620 colon
SF-295 CNS = tested on: SF-295 CNS
NCI-H522 lung = tested on: NCI-H522 lung
MCF7 breast = tested on: MCF7 breast
PC-3 prostate = tested on: PC-3 prostate
A498 renal = tested on: A498 renal
SF-539 CNS = tested on: SF-539 CNS
UACC-62 melanoma = tested on: UACC-62 melanoma
SNB-75 CNS = tested on: SNB-75 CNS
UO-31 renal = tested on: UO-31 renal
SK-MEL-2 melanoma = tested on: SK-MEL-2 melanoma
SF-268 CNS = tested on: SF-268 CNS
OVCAR-3 ovarian = tested on: OVCAR-3 ovarian
HCT-116 colon = tested on: HCT-116 colon
K-562 leukemia = tested on: K-562 leukemia
CCRF-CEM leukemia = tested on: CCRF-CEM leukemia
KM12 colon = tested on: KM12 colon
BT-549 breast = tested on: BT-549 breast
SK-MEL-5 melanoma = tested on: SK-MEL-5 melanoma
HOP-92 NSCLC = tested on: HOP-92 NSCLC
SN12C renal = tested on: SN12C renal
MDA-MB-435 = tested on: MDA-MB-435
HL-60(TB) leukemia = tested on: HL-60(TB) leukemia
IGROV1 ovarian = tested on: IGROV1 ovarian
SR leukemia = tested on: SR leukemia
NCI-H460 lung = tested on: NCI-H460 lung
LOX IMVI melanoma = tested on: LOX IMVI melanoma
M14 melanoma = tested on: M14 melanoma
UACC-257 melanoma = tested on: UACC-257 melanoma
OVCAR-8 ovarian = tested on: OVCAR-8 ovarian
RPMI-8226 leukemia = tested on: RPMI-8226 leukemia
A549 NSCLC = tested on: A549 NSCLC
MDA-MB-231 breast = tested on: MDA-MB-231 breast
786-0 renal = tested on: 786-0 renal
ACHN renal = tested on: ACHN renal
EKVX NSCLC = tested on: EKVX NSCLC
CAKI-1 renal = tested on: CAKI-1 renal
HCT-15 colon = tested on: HCT-15 colon
TK-10 renal = tested on: TK-10 renal
RXF 393 renal = tested on: RXF 393 renal
SK-MEL-28 melanoma = tested on: SK-MEL-28 melanoma
DU-145 prostate = tested on: DU-145 prostate
OVCAR-4 ovarian = tested on: OVCAR-4 ovarian
NCI-H226 lung = tested on: NCI-H226 lung
HOP-62 NSCLC = tested on: HOP-62 NSCLC
HT29 colon = tested on: HT29 colon
HS 578T breast = tested on: HS 578T breast
MOLT-4 leukemia = tested on: MOLT-4 leukemia
U251 CNS = tested on: U251 CNS

COc1ccc(CN2C(=O)C(Cl)=C(Nc3cccc(O)c3)C2=O)cc1 showed a GI50 (SW-620 colon) of 4.69 µM, a TGI (SW-620 colon) greater than 100 µM and a GI50 (SF-295 CNS) of 2.75 µM. For the same molecule, the TGI (SF-295 CNS) was 31.2 µM, the GI50 (NCI-H522 lung) was 2.31 µM and the TGI (NCI-H522 lung) was 17.6 µM. The GI50 (MCF7 breast) was 3.64 µM, the TGI (MCF7 breast) was 15.6 µM and the GI50 (PC-3 prostate) was 4.39 µM. For the same molecule, the TGI (PC-3 prostate) was 36.1 µM, the GI50 (A498 renal) was 14.2 µM and the TGI (A498 renal) was 35.7 µM. It also gave a GI50 (SF-539 CNS) of 4.24 µM, a TGI (SF-539 CNS) of 15.9 µM and a GI50 (UACC-62 melanoma) of 2.83 µM. The TGI (UACC-62 melanoma) was 21.1 µM, the GI50 (SNB-75 CNS) was 6.73 µM and the TGI (SNB-75 CNS) was greater than 100 µM. The GI50 (UO-31 renal) was 6.91 µM, the TGI (UO-31 renal) was 95.1 µM and the GI50 (SK-MEL-2 melanoma) was 4.16 µM. The TGI (SK-MEL-2 melanoma) was 24.5 µM, the GI50 (SF-268 CNS) was 17.2 µM and the TGI (SF-268 CNS) was 45.8 µM. It also gave a GI50 (OVCAR-3 ovarian) of 1.73 µM, a TGI (OVCAR-3 ovarian) of 23.5 µM and a GI50 (HCT-116 colon) of 1.14 µM. For the same molecule, the TGI (HCT-116 colon) was 19.8 µM, the GI50 (K-562 leukemia) was 0.349 µM and the TGI (K-562 leukemia) was 9.13 µM. The GI50 (CCRF-CEM leukemia) was 0.748 µM, the TGI (CCRF-CEM leukemia) was 20.9 µM and the GI50 (KM12 colon) was 0.801 µM. For the same molecule, the TGI (KM12 colon) was 21.6 µM, the GI50 (BT-549 breast) was 13.7 µM and the TGI (BT-549 breast) was 45.4 µM. It also gave a GI50 (SK-MEL-5 melanoma) of 3.78 µM, a TGI (SK-MEL-5 melanoma) of 17.7 µM and a GI50 (HOP-92 NSCLC) of 12.1 µM. It also gave a TGI (HOP-92 NSCLC) of 59.6 µM, a GI50 (SN12C renal) of 4.03 µM and a TGI (SN12C renal) of 20.1 µM. It also gave a GI50 (MDA-MB-435) of 0.269 µM, a TGI (MDA-MB-435) of 1.7 µM and a GI50 (HL-60(TB) leukemia) of 1.29 µM. It also gave a TGI (HL-60(TB) leukemia) of 7.49 µM, a GI50 (IGROV1 ovarian) of 0.591 µM and a TGI (IGROV1 ovarian) of 15.2 µM. It also gave a GI50 (SR leukemia) of 0.185 µM, a TGI (SR leukemia) of 0.465 µM and a GI50 (NCI-H460 lung) of 14.6 µM. The TGI (NCI-H460 lung) was 31.6 µM, the GI50 (LOX IMVI melanoma) was 5.7 µM and the TGI (LOX IMVI melanoma) was 23 µM. The GI50 (M14 melanoma) was 5.63 µM, the TGI (M14 melanoma) was 75.7 µM and the GI50 (UACC-257 melanoma) was 5.64 µM. It also gave a TGI (UACC-257 melanoma) of 19.2 µM, a GI50 (OVCAR-8 ovarian) of 2.99 µM and a TGI (OVCAR-8 ovarian) of 15 µM. The GI50 (RPMI-8226 leukemia) was 0.807 µM, the TGI (RPMI-8226 leukemia) was 11.7 µM and the GI50 (A549 NSCLC) was 3.15 µM. The TGI (A549 NSCLC) was 20.5 µM, the GI50 (MDA-MB-231 breast) was 6.43 µM and the TGI (MDA-MB-231 breast) was greater than 100 µM. It also gave a GI50 (786-0 renal) of 4.23 µM, a TGI (786-0 renal) greater than 100 µM and a GI50 (ACHN renal) of 10.9 µM. For the same molecule, the TGI (ACHN renal) was 57.3 µM, the GI50 (EKVX NSCLC) was 21.5 µM and the TGI (EKVX NSCLC) was 56 µM. It also gave a GI50 (CAKI-1 renal) of 1.68 µM, a TGI (CAKI-1 renal) of 21.3 µM and a GI50 (HCT-15 colon) of 2.05 µM. For the same molecule, the TGI (HCT-15 colon) was 21.4 µM, the GI50 (TK-10 renal) was 3.77 µM and the TGI (TK-10 renal) was 37 µM. For the same molecule, the GI50 (RXF 393 renal) was 2.16 µM, the TGI (RXF 393 renal) was 11.3 µM and the GI50 (SK-MEL-28 melanoma) was 13.3 µM. For the same molecule, the TGI (SK-MEL-28 melanoma) was greater than 100 µM, the GI50 (DU-145 prostate) was 13.8 µM and the TGI (DU-145 prostate) was 33 µM. The GI50 (OVCAR-4 ovarian) was 45.1 µM, the TGI (OVCAR-4 ovarian) was greater than 100 µM and the GI50 (NCI-H226 lung) was 6.44 µM. It also gave a TGI (NCI-H226 lung) of 50.5 µM, a GI50 (HOP-62 NSCLC) of 8.61 µM and a TGI (HOP-62 NSCLC) greater than 100 µM. It also gave a GI50 (HT29 colon) of 18 µM, a TGI (HT29 colon) greater than 100 µM and a GI50 (HS 578T breast) of 9.62 µM. For the same molecule, the TGI (HS 578T breast) was 51.7 µM, the GI50 (MOLT-4 leukemia) was 0.501 µM and the TGI (MOLT-4 leukemia) was 10.5 µM. The GI50 (U251 CNS) was 5.05 µM and the TGI (U251 CNS) was 21.1 µM.
